The target in one test is Sigma 1 (Homo sapiens, UniProt Q99720). Nature of the test: Equilibrium binding (Table 69).
Another test has as its target D5 (Homo sapiens, UniProt P21918). Description: Equilibrium receptor binding, recombinant human receptor.
The target of the next test is 5-HT6 (Homo sapiens, UniProt P50406). The description is as above. On the set-up: expressed in transfected cells.
Another test addresses T1, 5-HT1A receptor (Homo sapiens, UniProt P08908).
T1 construct: expressed in transfected cells
T1 sequence (P08908 1-422): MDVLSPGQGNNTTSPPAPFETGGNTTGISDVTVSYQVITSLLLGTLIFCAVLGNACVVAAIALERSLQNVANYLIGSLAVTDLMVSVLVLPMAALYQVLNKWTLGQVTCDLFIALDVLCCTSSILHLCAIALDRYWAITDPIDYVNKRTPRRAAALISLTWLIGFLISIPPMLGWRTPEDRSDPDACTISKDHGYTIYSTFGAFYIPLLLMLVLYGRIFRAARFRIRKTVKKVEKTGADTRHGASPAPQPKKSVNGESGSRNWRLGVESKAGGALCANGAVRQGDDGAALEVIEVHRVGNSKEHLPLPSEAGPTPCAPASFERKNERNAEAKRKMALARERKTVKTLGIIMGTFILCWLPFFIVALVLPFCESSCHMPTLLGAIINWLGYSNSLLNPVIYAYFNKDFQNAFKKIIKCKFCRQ
Description: G-protein-dependent signal transduction (functional agonism). Conditions: for pEC50: read-out: EC50, functional agonist. The format is cell-based. As for the experimental part: (§1) Quantitation was based on peak area ratio of the analytes versus their stable labeled internal standards. A weighted (1/C2), linear regression was performed to determine the concentration of the analytes. All regressions and figures presented in this validation report were generated by MDS Sciex Analyst version 1.4.2 and Thermo Electron Corporation Watson LIMS software, version 7.0.0.01b. […] Select receptors were analyzed in ligand-induced intracellular calcium mobilization.

Another test concerns the target T2, histamine H1 receptor (Homo sapiens, UniProt P35367).
T2 construct: expressed in transfected cells
Nature of the test: G-protein-independent signal transduction, β-arrestin signaling. The conditions noted are these: for pIC50: H1, β-arrestin signaling, read-out: IC50, functional antagonist. The format is cell-based.

In test [1] the target is T3, adrenergic alpha-2A receptor (Homo sapiens, UniProt P08913).
T3 construct: expressed in transfected cells
Description: Functional antagonism, ligand-induced intracellular calcium mobilization. The format is cell-based. The conditions noted are these: read-out: IC50, functional antagonist. As for the experimental part: as §1

For a further test, the target named is α2B (Homo sapiens, UniProt P18089). Nature of the test: Functional antagonism, cAMP production. On the technique in general: Changes in cAMP serve as a functional read-out for many G protein-coupled receptors.
Another test deals with T4, D3 (Homo sapiens, UniProt P35462).
T4 construct: expressed in transfected cells
Description: Equilibrium receptor binding, recombinant human receptor.

For the next test, the target named is T5, 5-HT2A (Homo sapiens, UniProt P28223).
T5 construct: expressed in transfected cells
Description: G-protein-dependent signal transduction, turnover of inositol triphosphate (IP). Conditions: read-out: IC50 (nM) (Antagonist). The format is cell-based.

The next test has as its target T6, adrenergic α1A receptor (Homo sapiens, UniProt P35348).
T6 construct: expressed in transfected cells
T6 sequence (P35348 1-466): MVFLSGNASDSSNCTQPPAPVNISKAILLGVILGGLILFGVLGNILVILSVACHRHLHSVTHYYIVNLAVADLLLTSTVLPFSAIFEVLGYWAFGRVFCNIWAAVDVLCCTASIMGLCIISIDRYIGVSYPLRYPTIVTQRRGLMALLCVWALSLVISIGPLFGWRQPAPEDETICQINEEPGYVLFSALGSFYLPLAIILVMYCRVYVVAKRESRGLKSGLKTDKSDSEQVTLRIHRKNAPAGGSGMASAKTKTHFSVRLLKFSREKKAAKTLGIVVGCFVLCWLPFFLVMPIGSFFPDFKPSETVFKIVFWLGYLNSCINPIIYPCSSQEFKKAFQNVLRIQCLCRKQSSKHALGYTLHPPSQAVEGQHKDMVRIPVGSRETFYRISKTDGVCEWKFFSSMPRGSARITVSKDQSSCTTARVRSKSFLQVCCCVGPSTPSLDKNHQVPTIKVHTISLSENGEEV
Description: G-protein-dependent signal transduction, intracellular Ca2+ mobilization. Conditions: for pIC50: α1A, Ca2+ mobilization, read-out: IC50, functional antagonist. The format is cell-based. Background: Calcium flux is commonly read through the fluorescence of an indicator in the cells.

The target in a further test is Sigma 2 (Homo sapiens, UniProt Q5BJF2). Nature of the test: Equilibrium binding (Table 69).
Another test concerns the target T7, adrenergic α1B receptor (Homo sapiens, UniProt P35368).
T7 construct: expressed in transfected cells
T7 sequence (P35368 1-520): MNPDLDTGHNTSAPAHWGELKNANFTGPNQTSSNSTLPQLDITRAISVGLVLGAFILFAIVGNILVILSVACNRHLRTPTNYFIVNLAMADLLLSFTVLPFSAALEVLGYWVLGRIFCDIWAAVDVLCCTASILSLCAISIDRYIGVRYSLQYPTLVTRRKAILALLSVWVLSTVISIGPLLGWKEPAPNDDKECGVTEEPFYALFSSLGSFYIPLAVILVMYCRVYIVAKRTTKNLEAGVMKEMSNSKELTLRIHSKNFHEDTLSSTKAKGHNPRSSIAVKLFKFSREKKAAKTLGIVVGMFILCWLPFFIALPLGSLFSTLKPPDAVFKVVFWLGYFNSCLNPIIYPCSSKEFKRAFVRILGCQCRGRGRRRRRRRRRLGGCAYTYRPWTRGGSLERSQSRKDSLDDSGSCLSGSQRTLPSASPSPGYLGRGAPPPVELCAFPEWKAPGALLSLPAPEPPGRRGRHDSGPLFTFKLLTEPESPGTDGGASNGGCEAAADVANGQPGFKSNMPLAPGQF
Description: G-protein-independent signal transduction, β-arrestin signaling. The format is cell-based. The conditions noted are these: for pIC50: α1B, β-arrestin signaling, read-out: IC50, functional antagonist.

For test [2], the target named is T8, adrenergic alpha-2B receptor (Alpha2B) (Homo sapiens, UniProt P18089).
T8 construct: expressed in transfected cells
Nature of the test: Equilibrium receptor binding, recombinant human receptor.

[3] abbreviates: read-out: IC50 (nM) (Antagonist).

SMILES strings stand for the structures. pEC50, pIC50, pKi: −log10 of the molar value. Like-named read-outs stand apart in the source and are kept apart here.

T2 sequence (P35367 whole entry): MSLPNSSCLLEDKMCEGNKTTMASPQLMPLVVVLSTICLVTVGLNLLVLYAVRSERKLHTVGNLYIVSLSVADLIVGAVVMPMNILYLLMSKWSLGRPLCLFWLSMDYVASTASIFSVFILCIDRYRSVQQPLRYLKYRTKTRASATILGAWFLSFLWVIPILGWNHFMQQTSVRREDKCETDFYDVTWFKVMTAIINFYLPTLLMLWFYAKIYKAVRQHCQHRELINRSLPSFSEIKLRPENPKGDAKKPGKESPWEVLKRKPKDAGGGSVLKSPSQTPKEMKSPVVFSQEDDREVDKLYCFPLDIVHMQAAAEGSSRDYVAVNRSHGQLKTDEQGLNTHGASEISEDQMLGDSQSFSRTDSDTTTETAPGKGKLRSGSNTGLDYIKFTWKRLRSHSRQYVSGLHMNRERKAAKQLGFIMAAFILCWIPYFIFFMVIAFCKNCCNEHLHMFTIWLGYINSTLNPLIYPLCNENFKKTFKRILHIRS
Chain of 5-HT6 (P50406 whole entry): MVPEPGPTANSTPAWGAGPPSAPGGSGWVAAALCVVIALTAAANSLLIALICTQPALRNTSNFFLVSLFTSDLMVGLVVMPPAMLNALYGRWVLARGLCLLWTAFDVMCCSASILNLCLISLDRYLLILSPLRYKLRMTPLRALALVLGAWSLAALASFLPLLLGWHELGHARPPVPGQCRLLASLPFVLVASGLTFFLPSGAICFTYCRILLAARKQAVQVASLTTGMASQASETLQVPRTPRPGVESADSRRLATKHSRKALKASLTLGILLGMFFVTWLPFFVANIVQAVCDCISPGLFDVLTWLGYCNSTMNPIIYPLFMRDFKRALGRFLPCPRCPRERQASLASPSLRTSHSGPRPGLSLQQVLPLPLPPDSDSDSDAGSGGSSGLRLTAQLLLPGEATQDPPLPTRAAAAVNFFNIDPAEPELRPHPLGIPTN
T8 sequence (P18089 whole entry): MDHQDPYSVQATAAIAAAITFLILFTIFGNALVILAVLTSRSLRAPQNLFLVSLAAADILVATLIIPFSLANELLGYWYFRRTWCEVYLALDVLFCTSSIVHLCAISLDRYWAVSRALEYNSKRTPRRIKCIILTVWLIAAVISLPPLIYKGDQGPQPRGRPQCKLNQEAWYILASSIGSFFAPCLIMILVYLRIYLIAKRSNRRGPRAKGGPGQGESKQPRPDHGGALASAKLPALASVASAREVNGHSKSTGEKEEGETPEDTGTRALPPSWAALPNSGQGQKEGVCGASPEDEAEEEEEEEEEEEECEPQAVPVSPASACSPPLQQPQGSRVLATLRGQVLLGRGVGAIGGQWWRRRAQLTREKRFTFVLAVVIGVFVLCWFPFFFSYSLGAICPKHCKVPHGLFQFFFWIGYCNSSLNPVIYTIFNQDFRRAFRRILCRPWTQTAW
Chain of α2B (P18089 whole entry): as above
Chain of D5 (P21918 whole entry): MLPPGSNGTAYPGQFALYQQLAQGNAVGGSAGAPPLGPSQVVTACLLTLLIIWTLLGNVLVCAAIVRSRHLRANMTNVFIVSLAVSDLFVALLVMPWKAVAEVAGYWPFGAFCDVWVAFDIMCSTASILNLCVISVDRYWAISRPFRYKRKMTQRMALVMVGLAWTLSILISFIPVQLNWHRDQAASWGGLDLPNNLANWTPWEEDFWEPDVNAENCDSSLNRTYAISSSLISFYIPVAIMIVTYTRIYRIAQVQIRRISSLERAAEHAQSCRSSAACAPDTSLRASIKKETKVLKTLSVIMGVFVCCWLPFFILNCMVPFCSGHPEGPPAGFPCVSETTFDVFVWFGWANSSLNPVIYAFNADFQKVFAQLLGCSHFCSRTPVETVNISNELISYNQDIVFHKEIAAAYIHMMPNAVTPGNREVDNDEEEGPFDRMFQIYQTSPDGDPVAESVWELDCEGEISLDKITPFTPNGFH
T3 sequence (P08913 whole entry): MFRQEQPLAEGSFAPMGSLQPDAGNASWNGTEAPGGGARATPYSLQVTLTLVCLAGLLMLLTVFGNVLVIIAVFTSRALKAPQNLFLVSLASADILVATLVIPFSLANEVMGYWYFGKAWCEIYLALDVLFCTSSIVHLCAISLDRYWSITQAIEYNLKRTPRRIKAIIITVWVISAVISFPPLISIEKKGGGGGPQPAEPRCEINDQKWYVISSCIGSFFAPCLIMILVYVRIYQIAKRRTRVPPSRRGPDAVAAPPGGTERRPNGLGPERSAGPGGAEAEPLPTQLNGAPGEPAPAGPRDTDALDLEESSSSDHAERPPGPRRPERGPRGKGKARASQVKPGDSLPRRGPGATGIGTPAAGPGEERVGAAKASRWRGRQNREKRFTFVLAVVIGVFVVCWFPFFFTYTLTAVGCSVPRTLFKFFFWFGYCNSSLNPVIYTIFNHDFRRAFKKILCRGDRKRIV
Chain of Sigma 1 (Q99720 whole entry): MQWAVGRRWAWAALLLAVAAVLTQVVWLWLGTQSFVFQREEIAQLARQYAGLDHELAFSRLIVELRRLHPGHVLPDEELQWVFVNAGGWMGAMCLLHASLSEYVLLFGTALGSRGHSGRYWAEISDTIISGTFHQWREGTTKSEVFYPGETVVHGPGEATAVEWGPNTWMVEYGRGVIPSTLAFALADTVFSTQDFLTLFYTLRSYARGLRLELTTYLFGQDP
Chain of Sigma 2 (Q5BJF2 whole entry): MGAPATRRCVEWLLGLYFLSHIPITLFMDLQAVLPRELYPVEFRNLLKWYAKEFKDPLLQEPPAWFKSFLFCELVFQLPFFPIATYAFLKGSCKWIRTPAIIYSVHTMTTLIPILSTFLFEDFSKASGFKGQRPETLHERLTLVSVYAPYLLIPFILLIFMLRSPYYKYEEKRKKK
T4 sequence (P35462 whole entry): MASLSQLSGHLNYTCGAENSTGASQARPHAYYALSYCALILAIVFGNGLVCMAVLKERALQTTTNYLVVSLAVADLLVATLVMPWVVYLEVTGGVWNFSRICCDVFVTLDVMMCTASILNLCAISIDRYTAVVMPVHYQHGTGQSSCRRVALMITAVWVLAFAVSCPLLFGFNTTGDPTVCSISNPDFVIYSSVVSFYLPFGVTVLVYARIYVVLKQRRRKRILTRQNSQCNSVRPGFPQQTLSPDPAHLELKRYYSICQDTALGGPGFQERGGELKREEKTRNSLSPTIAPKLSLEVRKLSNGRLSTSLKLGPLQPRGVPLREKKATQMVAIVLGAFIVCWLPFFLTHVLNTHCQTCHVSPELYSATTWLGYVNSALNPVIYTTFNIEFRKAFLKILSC
T5 sequence (P28223 whole entry): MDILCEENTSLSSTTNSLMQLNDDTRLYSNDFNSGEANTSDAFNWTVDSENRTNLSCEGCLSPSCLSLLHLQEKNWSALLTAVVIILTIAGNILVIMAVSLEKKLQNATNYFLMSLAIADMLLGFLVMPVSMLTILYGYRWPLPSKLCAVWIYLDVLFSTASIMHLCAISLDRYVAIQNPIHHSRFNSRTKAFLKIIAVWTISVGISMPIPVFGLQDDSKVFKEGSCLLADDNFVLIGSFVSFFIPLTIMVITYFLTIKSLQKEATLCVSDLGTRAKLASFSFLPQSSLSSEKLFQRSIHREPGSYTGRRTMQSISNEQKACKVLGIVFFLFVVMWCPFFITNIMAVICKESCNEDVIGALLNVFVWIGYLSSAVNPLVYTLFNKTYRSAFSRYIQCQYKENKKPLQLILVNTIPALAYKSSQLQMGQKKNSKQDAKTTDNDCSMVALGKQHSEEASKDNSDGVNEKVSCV

Usually IC50 stands for the point on the concentration scale where inhibition reaches its midpoint. Usually pKi stands for the Ki on a negative log10 scale, so that one unit is a factor of ten. The EC50 is the concentration that produces a half-maximal response. What is called pEC50 is the EC50 on a negative log10 scale, so that one unit is a factor of ten. The pIC50 is the IC50 on a negative log10 scale, so that one unit is a factor of ten. Regarding `CN(C)CCC=C1c2ccccc2C=Cc2ccccc21` [cyclobenzaprine, 3-(5H-dibenzo[a,d]cyclohepten-5-ylidene)-N,N-dimethyl-1-propanamine], the figures for the IC50 on Sigma 1 (setting [3]), at 5-HT2A and on Sigma 2 (setting [3]) were 790 nM, 210 nM and 2000 nM, respectively. Moreover, the pKi at D5 is 7.22; on 5-HT6 it was 6.32; at D3 it was 7.47; in [2] it was 7.68. Also, the EC50 on 5-HT1A receptor (read-out: EC50 (nM) (Agonist)) amounted to 3200 nM. For the same compound, the pEC50 on 5-HT1A receptor was 5.28. The pIC50 at histamine H1 receptor was 8.57; in test [1], 5.37; against α2B it was 5.01; on adrenergic α1A receptor it was 8.31; at adrenergic α1B receptor, 6.84.

Take `CNCCC=C1c2ccccc2C=Cc2ccccc21` [norcyclobenzaprine, 3-(5H-dibenzo[a,d]cyclohepten-5-ylidene)-N-methyl-1-propanamine]: the pKi was 6.92 on Sigma 1; 6.55 on D5; 5.85 at 5-HT6; 7.01 on D3; 6.32 on Sigma 2; 6.82 in test [2]. For the same compound, the “Four parameter Hill slope (or fit slope) ratio; Ca2+ signaling” value at 5-HT1A receptor is −0.79; at adrenergic α1A receptor (α-1A), 2.27. For the same compound, the negative-log EC50 (pEC50) at 5-HT1A receptor was 5.49. Moreover, the IC50 came to 5300 nM at 5-HT1A receptor (setting [3]) and 450 nM on 5-HT2A. The entries for the “Four parameter Hill slope (or fit slope) ratio; β-arrestin signaling” value at histamine H1 receptor (H1) and at adrenergic α1B receptor (α-1B) were 1.09 and 0.70, respectively. Besides, the negative-log IC50 (pIC50) is 8.21 on histamine H1 receptor; 5.19 in test [1]; 4.39 against α2B; 7.80 at adrenergic α1A receptor; 6.76 at adrenergic α1B receptor.
